Experimental findings from article PMC9056950, “Synthesis and biochemical evaluation of cephalosporin analogues equipped with chemical tethers” (RSC Advances, 2020) are described below.

Test [1] has as its system T1, S. aureus (NCTC 6571).
T1 construct: NCTC 6571
Further details: species or system Staphylococcus aureus NCTC 6571; broth microdilution growth, OD600 after 16 h, MIC from GraphPad fit. Particulars: 16 h. The method, then:
Stock solutions of each compound were prepared in 50% DMSO/water at ×100 the final concentration. In a 96-well plate, 2 μL of the test compounds were added to each well. Each plate included the positive control (750 μg mL^−1 chloramphenicol), the negative control (50% DMSO/water) and media only wells. To each test well was then added 198 μL of the required bacteria stock (OD 0.05). E. coli assays were carried out using LB broth, S. aureus were carried out using tryptic soy broth (TSB). Plates were incubated at 37 °C and the OD600 was measured (Epoch 2 Microplate Spectrophotometer, BioTek) every 30 min over a 17 h period. Tests were carried out in triplicate, the background absorbance was removed using reference wells, and the averages were determined. Dose curves were plotting using the OD600 after 16 h growth vs. compound concentration. MICs were defined as the minimum concentration of compound at which no significant growth was observed after 16 h incubation. MIC values were determined using GraphPad Prism (version 8.3.0). The activity of 1–12 was investigated with growth assays against Staphylococcus aureus (NCTC 6571). S. aureus is a virulent Gram-positive pathogen that can cause a wide range of infections in humans.[29,30] Each compound was tested at 400–6 μM concentrations, with lower concentrations tested as required.

For test [2], the target named is T2, PBP4 (Bacillus subtilis, UniProt P32959).
T2 sequence (P32959 1-451): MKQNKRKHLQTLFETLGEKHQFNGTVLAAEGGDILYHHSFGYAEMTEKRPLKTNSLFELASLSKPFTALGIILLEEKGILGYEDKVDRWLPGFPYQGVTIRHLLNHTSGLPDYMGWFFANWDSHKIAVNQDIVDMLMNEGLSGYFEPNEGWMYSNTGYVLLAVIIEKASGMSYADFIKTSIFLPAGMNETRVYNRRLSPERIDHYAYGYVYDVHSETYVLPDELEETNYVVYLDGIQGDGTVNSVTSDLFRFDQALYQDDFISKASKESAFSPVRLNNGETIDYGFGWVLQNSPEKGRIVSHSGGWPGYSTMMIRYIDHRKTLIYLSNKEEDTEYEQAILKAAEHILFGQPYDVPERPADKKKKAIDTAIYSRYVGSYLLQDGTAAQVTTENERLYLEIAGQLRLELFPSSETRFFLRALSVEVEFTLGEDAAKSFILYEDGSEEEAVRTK
As to the kind of experiment: biochemical. Further details: gene pbpE; commercial protein (Generon); protein thermal shift assay, melting temperature change of PBP4. The settings on record: read-out: Average DTm/°C. As to the method: The thermal shift assay was carried out using the Protein Thermal Shift™ assay kit (Applied Biosystems). 3 μM of purified E. coli PBP3 was incubated with the β-lactam analogues at 300 μM concentration in a mixture containing the Protein Thermal Shift™ Dye. The samples were then heated in a StepOnePlus™ Real-Time PCR System from 25 to 95 °C at a rate of 1 °C min^−1. Tests were carried out in triplicate and the averages plotted as the negative first derivative vs. temperature. Reference wells, i.e. solutions consisting only of only PBP3 with dye, PBP3 only, and dye only, were used as controls. Melting temperature (Tm) values were determined with and without each compound, and the change in melting temperature (ΔTm) was obtained, Fig. 2. The thermal shift assay with PBP4 was carried out using the protocol described for PBP3, with the follow deriviatisation: 500 nM of purified Bacillus subtilis PBP4 was incubated with 50 μM of the β-lactam analogues. A thermal shift assay was used to investigate the binding of the cephalexin analogues to the therapeutic target, PBP, in vitro. This assay provides a fast and inexpensive method of detecting a ligand binding to a protein of interest. Briefly, the protein is gradually heated in the presence of a fluorescent dye that binds non-specifically to the hydrophobic surfaces. […]

The structures appear in SMILES notation. Converted amounts (≈) assume the structure as drawn.

On to `CC1(C)S[C@@H]2[C@H](NC(=O)Cc3ccccc3)C(=O)N2[C@H]1C(=O)O` [compound 11, penicillin], for which the “MIC (best-fit)” value in test [1] is 0.0977 µM (≈ 0.0327 µg/mL). In addition, the ΔTm at 50 µM in test [2] is -0.746 °C.
